Patent publication US20080300147A1, “Detection and Treatment of Fibrotic Disorders” (priority 2004, published 2008)

Columns and labels:
[1] = tested on: leiomyoma smooth muscle cells (LSMC); experiment: Realtime PCR mRNA expression in treated LSMC; format: cell-based, human
Experimental: (§1) Isolation and Culture of Leiomyoma and Myometrial Smooth Muscle Cells. […] Only untreated tissues were used for isolation of LSMC and MSMC. […] LSMC and MSMC were cultured in 6-well plates at an approximate density of 10^6 cells/well in DMEM-supplemented media containing 10% FBS. After reaching visual confluence, the cells were washed in serum-free media and incubated for 24 hrs under serum-free, phenol red-free condition (Chegini, N et al. Mol Hum Reprod, 2002, 8:1071-8).
(§2) Quantitative RealTime PCR. Realtime PCR was utilized for verification of 10 differentially expressed and regulated genes identified in leiomyoma and myometrium as well as LSMC and MSMC from untreated and GnRHa-treated cohorts. The selection of these genes was based not only on their expression values (up or downregulation), but classification and biological functions important to leiomyoma growth and regression, regulation by ovarian steroids, GnRHa and TGF-β. They are IL-11, CITED2, Nur77, EGR3, TGIF, TIEG, p27, p57, GAS-1 and GPRK5 representing cytokines, transcription factors, cell cycle regulators and signal transduction.
(§3) Determination of TGF-β1 on global gene expression in LSMC and MSMC. All the materials utilized for this study including isolation of leiomyoma and myometrial cells are identical to those described in detail above. To determine the effect of TGF-β1 on global gene expression in LSMC and MSMC, the cells were cultured in 6-well plates at approximate density of 10^6 cells/well in DMEM-supplemented media containing 10% FBS. […] The cells were then treated with 2.5 ng/ml of TGF-β1 (R & D System, Minneapolis, […].) for 2, 6 and 12 hours. […] The cells were washed and then treated with TGF-β1 (2.5 ng/ml) for 2 hours. Parallel experiments using untreated cells were used as controls including an additional control for TGF-β type II receptor antisense and sense experiments.
(§4) Total cellular RNA was isolated from LSMC- and MSMC-treated and untreated controls and subjected to microarray analysis. To maintain standard and allow for comparative analysis, the GeneChips used in this study were utilized, simultaneously processed and their gene expression values were subjected to global normalization and transformation. Following these unsupervised assessments the coefficient of variation was calculated for each probe set across all the chips used in this study, and the selected gene expression values of this study were independently subjected to supervised learning including R programming analysis and ANOVA with false discovery rate selected at p<0.001 (Moustakas, A. Immunol Lett, 2002, 82:85-91; Verrecchia, F. et al. J Biol Chem, 2001, 276:17058-17062). The genes identified in these cohorts were analyzed for functional annotation and visualized using Database for Annotation, Visualization, and Integrated Discovery (DAVID) software with integrated GoCharts. Following the analysis, we selected 12 of the differentially expressed and regulated genes, including 10 identified and validated in leiomyoma and myometrium from untreated and GnRHa-treated cohorts, as well as LSMC and MSMC treated in vitro with GnRHa, for validation in response to TGF-β-time dependent action using Realtime PCR. They include IL-11, EGR3, CITED2, TIEG, TGIF, Nur77, p27, p57, GAS-1 and GPRK5. In addition, the expression of Runx1 and Runx2, transcription factors that interact with TGF-β receptor signaling pathways (Zavadil, J. et al. Proc Natl Acad Sci USA, 2001, 98:6686-6691), was validated in LSMC and MSMC as well as in leiomyoma and myometrium from GnRHa-treated and untreated cohorts. Detail description of the materials and methods for Realtime PCR as well as data analysis is provided in Chegini, N. et al. J Soc Gynecol Investig, 2003, 10:161-71.
(§5) Isolation and Culture of Leiomyoma and Myometrial Smooth Muscle Cells. Leiomyoma and myometrial smooth muscle cells (LSMC and MSMC) were isolated and cultured as previously described (Chegini, N. et al. Mol Hum Reprod, 2002, 8:1071-1078). […]

[2] = tested on: myometrial smooth muscle cells (MSMC); experiment: Realtime PCR mRNA expression in treated MSMC; format: cell-based, human
Experimental: as §1, §2, §3, §4, §5

[3] = U0126 20 μM 2 hrs, then GnRHa 0.1 μM 2 hrs
[4] = U0126 20 μM 2 hrs, then TGF-β1 2.5 ng/ml 2 hrs
[5] = TGF-β1 2.5 ng/ml, 2, 6 and 12 hours
[6] = TGF-β1 2.5 ng/ml, 2, 6 and 12 hrs

N#CC(=C(/N)Sc1ccccc1N)/C(C#N)=C(\N)Sc1ccccc1N [U0126]
inhibited: TGF-β-mediated CCN4 expression in LSMC [1, 4] | TGF-β-mediated S100A4 expression in LSMC [1, 4] | TGF-β-mediated fibulin-1C expression in LSMC [1, 4] | TGF-β-mediated CCN3 expression in MSMC [2, 4] | TGF-β-mediated CCN4 expression in MSMC [2, 4] | TGF-β-mediated S100A4 expression in MSMC [2, 4] | TGF-β-mediated fibulin-1C expression in MSMC [2, 4]
limited effect: TGF-β-mediated action on CCN2 in LSMC [1, 4] | TGF-β-mediated action on CCN2 in MSMC [2, 4]
increased: expression of FMOD in LSMC treated with GnRHa ([1]; U0126 20 μM 2 hrs, then GnRHa 2 hrs, compared to U0126-treated cells) | TGF-β-mediated action on FMOD in LSMC [1, 4] | basal expression of FMOD in LSMC ([1]; U0126 20 μM pretreatment 2 hrs) | expression of FMOD in MSMC treated with GnRHa ([2]; U0126 20 μM 2 hrs, then GnRHa 2 hrs, compared to untreated control) | basal expression of FMOD in MSMC ([2]; U0126 20 μM pretreatment 2 hrs)
altered: GnRHa-mediated action on CCN2 expression in LSMC [1, 3] | GnRHa-mediated action on CCN3 expression in LSMC [1, 3] | GnRHa-mediated action on CCN4 expression in LSMC [1, 3] | GnRHa-mediated action on S100A4 expression in LSMC [1, 3] | GnRHa-mediated action on fibulin-1C expression in LSMC [1, 3] | basal CCN2 mRNA expression in LSMC ([1]; U0126 20 μM pretreatment 2 hrs) | basal CCN3 mRNA expression in LSMC ([1]; U0126 20 μM pretreatment 2 hrs) | basal CCN4 mRNA expression in LSMC ([1]; U0126 20 μM pretreatment 2 hrs) | basal S100A4 mRNA expression in LSMC ([1]; U0126 20 μM pretreatment 2 hrs) | basal fibulin-1C mRNA expression in LSMC ([1]; U0126 20 μM pretreatment 2 hrs) | GnRHa-mediated action on CCN2 expression in MSMC [2, 3] | GnRHa-mediated action on CCN3 expression in MSMC [2, 3] | GnRHa-mediated action on CCN4 expression in MSMC [2, 3] | GnRHa-mediated action on S100A4 expression in MSMC [2, 3] | GnRHa-mediated action on fibulin-1C expression in MSMC [2, 3] | basal CCN2 mRNA expression in MSMC ([2]; U0126 20 μM pretreatment 2 hrs) | basal CCN3 mRNA expression in MSMC ([2]; U0126 20 μM pretreatment 2 hrs) | basal CCN4 mRNA expression in MSMC ([2]; U0126 20 μM pretreatment 2 hrs) | basal S100A4 mRNA expression in MSMC ([2]; U0126 20 μM pretreatment 2 hrs) | basal fibulin-1C mRNA expression in MSMC ([2]; U0126 20 μM pretreatment 2 hrs)
inhibiting: TGF-β-mediated action on FMOD in MSMC [2, 4]

TGF-β1: human recombinant TGF-β1 (R&D System), used at 2.5 ng/ml
suppression: GAS1 expression in MSMC [2, 5]
suppressed: Gas1 expression in LSMC [1, 5] | p27Kip1 expression in LSMC [1, 5] | p57Kip2 expression in LSMC [1, 5]
biphasic fashion: p27Kip1 expression in MSMC [2, 5] | p57Kip2 expression in MSMC [2, 5]
moderately inhibiting: S100A4 mRNA expression in LSMC [1, 6] | fibulin-1C mRNA expression in LSMC [1, 6] | S100A4 mRNA expression in MSMC [2, 6]
5-10 fold: increase in FMOD expression in MSMC ([2]; TGF-β1 2.5 ng/ml, declined to control levels)
significantly increased: FMOD expression in MSMC ([2]; TGF-β1 2.5 ng/ml, gradual reduction to control levels after 12 hrs)
either no effect, or inhibited: FMOD expression in LSMC ([1]; TGF-β1 2.5 ng/ml, inhibition after 12 hrs)
inhibiting: CCN3 mRNA expression in LSMC [1, 6] | CCN3 mRNA expression in MSMC [2, 6]
transiently increased: Nur77 expression in LSMC [1, 5] | TGIF expression in LSMC [1, 5] | TIEG expression in LSMC [1, 5] | Nur77 expression in MSMC [2, 5] | TGIF expression in MSMC [2, 5] | TIEG expression in MSMC [2, 5]
increasing: fibulin-1C mRNA expression in MSMC [2, 6]
two fold: increase of CCN4 mRNA expression in LSMC [1, 6] | increase of CCN4 mRNA expression in MSMC [2, 6]
